Results from ChEMBL document CHEMBL1144970, “Protective effects of steroid saponins from Paris polyphylla var. yunnanensis on ethanol- or indomethacin-induced gastric mucosal lesions in rats: structural requirement for activity and mode of action” (Bioorg Med Chem Lett, 2003).

Columns and labels:
Rattus norvegicus [1] = test: Reduction in length (control value = 141+/-14.3) of gastric lesions induced by ethanol was measured, after administration of 1.25 mg/kg po in rats; assay type: functional, Stomach
Rattus norvegicus [2] = test: Reduction in length (control value = 152.9+/-9.7) of gastric lesions induced by ethanol was measured, after administration of 5 mg/kg po in Indomethacin-pretreated rats; assay type: functional, Stomach
Rattus norvegicus [3] = test: Volume of the gastric juice (control value = 4.7+/-.3) of stomach content of pylorus ligated rats was measured (5 mg/kg po of the Compound was administered 1 hr before the pylorus ligation); assay type: functional
Rattus norvegicus [4] = test: Acid output from the stomach (control value = 120.3+/-11.1) in pylorus ligated rats (2.5 mg/kg po of the Compound was administered 1 hr before the pylorus ligation); assay type: functional
Rattus norvegicus [5] = test: Reduction in length (control value = 141+/-14.3) of gastric lesions induced by ethanol was measured, after administration of 5 mg/kg po in rats; assay type: functional, Stomach
Rattus norvegicus [6] = test: Percent inhibition of gastric lesions (length = 34.3+/-5.5) induced by ethanol was measured, after administration of 2.5 mg/kg po in rats; assay type: functional; settings: Stomach
Rattus norvegicus [7] = test: Reduction in length (control value = 70.4+/-2.3) of gastric lesions induced by endomethacin was measured, after administration of 5 mg/kg po in rats; assay type: functional, Stomach
Rattus norvegicus [8] = test: Percent inhibition of gastric lesions induced by ethanol was measured, after administration of 2.5 mg/kg po in rats; assay type: functional; settings: Stomach
Rattus norvegicus [9] = test: Reduction in length (control value = 152.9+/-9.7) of gastric lesions induced by ethanol was measured, after administration of 2.5 mg/kg po in Indomethacin-pretreated rats; assay type: functional, Stomach
Rattus norvegicus [10] = test: Reduction in length (control value = 70.4+/-2.3) of gastric lesions induced by endomethacin was measured, after administration of 2.5 mg/kg po in rats; assay type: functional, Stomach
Rattus norvegicus [11] = test: Percent inhibition of gastric lesions (length = 110+/-8.4) induced by ethanol was measured, after administration of 2.5 mg/kg po in NEM-pretreated rats; assay type: functional; settings: Stomach
Rattus norvegicus [12] = test: Percent inhibition of gastric lesions (length = 50+/-9.9) induced by ethanol was measured, after administration of 5 mg/kg po in l-NAME-pretreated rats; assay type: functional; settings: Stomach
Rattus norvegicus [13] = test: Percent inhibition of gastric lesions (length = 24.9 +/-3.6) induced by ethanol was measured, after administration of 5 mg/kg po in rats; assay type: functional; settings: Stomach
Rattus norvegicus [14] = test: Percent inhibition of gastric lesions induced by ethanol was measured, after administration of 5 mg/kg po in l-NAME-pretreated rats; assay type: functional; settings: Stomach
Rattus norvegicus [15] = test: Reduction in length (control value = 190.1+/-9.3) of gastric lesions induced by endomethacin was measured, after administration of 2.5 mg/kg po L-NAME-pretreated in rats; assay type: functional, Stomach
Rattus norvegicus [16] = test: Percent inhibition of gastric lesions (length = 139.3+/-11.2) induced by ethanol was measured, after administration of 2.5 mg/kg po in endomethacin pretreated rats; assay type: functional; settings: Stomach
Rattus norvegicus [17] = test: Reduction in length (control value = 206.7+/-6.3) of gastric lesions induced by endomethacin was measured, after administration of 2.5 mg/kg po NEM-pretreated in rats; assay type: functional, Stomach
Rattus norvegicus [18] = test: Percent inhibition of gastric lesions (length = 126.6+/-16.9) induced by ethanol was measured, after administration of 5 mg/kg po in endomethacin pretreated r rats; assay type: functional; settings: Stomach
Rattus norvegicus [19] = test: Reduction in length (control value = 141+/-14.3) of gastric lesions induced by ethanol was measured, after administration of 2.5 mg/kg po in rats; assay type: functional, Stomach
Rattus norvegicus [20] = test: Volume of the gastric juice (control value = 4.7+/-.3) of stomach content of pylorus ligated rats was measured(2.5 mg/kg po of the Compound was administered 1 hr before the pylorus ligation); assay type: functional
Rattus norvegicus [21] = test: Percent inhibition of gastric lesions (length = 92.8+/-8) induced by ethanol was measured, after administration of 2.5 mg/kg po in l-NAME-pretreated rats; assay type: functional; settings: Stomach
Rattus norvegicus [22] = test: pH of the gastric juice (control value = 1.39+/-0.02) of stomach content of pylorus ligated rats was measured (2.5 mg/kg po of the Compound was administered 1 hr before the pylorus ligation); assay type: ADME, organism-based; settings: in vivo
Rattus norvegicus [23] = test: Percent inhibition of gastric lesions induced by endomethacin was measured, after administration of 2.5 mg/kg po in rats; assay type: functional; settings: Stomach
Rattus norvegicus [24] = test: Reduction in length (control value = 206.7+/-6.3) of gastric lesions induced by endomethacin was measured, after administration of 5 mg/kg po NEM-pretreated in rats; assay type: functional, Stomach
Rattus norvegicus [25] = test: Percent inhibition of gastric lesions induced by ethanol was measured, after administration of 5 mg/kg po in rats; assay type: functional; settings: Stomach
Rattus norvegicus [26] = test: Reduction in length (control value = 70.4+/-2.3) of gastric lesions induced by endomethacin was measured, after administration of 1.25 mg/kg po in rats; assay type: functional, Stomach
Rattus norvegicus [27] = test: Percent inhibition of gastric lesions induced by ethanol was measured, after administration of 1.25 mg/kg po in rats; assay type: functional; settings: Stomach
Rattus norvegicus [28] = test: Reduction in length (control value = 190.1+/-9.3) of gastric lesions induced by endomethacin was measured, after administration of 5 mg/kg po L-NAME-pretreated in rats; assay type: functional, Stomach
Rattus norvegicus [29] = test: Acid output from the stomach (control value = 120.3+/-11.1) in pylorus ligated rats (5 mg/kg po of the Compound was administered 1 hr before the pylorus ligation); assay type: functional
Rattus norvegicus [30] = test: pH of the gastric juice (control value = 1.39+/-0.02) of stomach content of pylorus ligated rats was measured (5 mg/kg po of the Compound was administered 1 hr before the pylorus ligation); assay type: ADME, organism-based; settings: in vivo
Rattus norvegicus [31] = test: Percent inhibition of gastric lesions induced by endomethacin was measured, after administration of 1.25 mg/kg po in rats; assay type: functional; settings: Stomach
Rattus norvegicus [32] = test: Percent inhibition of gastric lesions induced by endomethacin was measured, after administration of 5 mg/kg po in rats; assay type: functional; settings: Stomach

## CC1CC[C@@]2(OC1)OC1C[C@H]3[C@@H]4CC=C5C[C@@H](O[C@@H]6O[C@H](CO)[C@@H](O[C@@H]7O[C@@H](CO)[C@H](O)[C@H]7O)[C@H](O)[C@H]6O[C@@H]6O[C@@H](C)[C@H](O)[C@@H](O)[C@H]6O)CC[C@]5(C)[C@H]4CC[C@]3(C)[C@@]1(O)[C@@H]2C (some centres not stated)
Rattus norvegicus [1]
  Length: 72.6 mm
Rattus norvegicus [2]
  Length: 127 mm
Rattus norvegicus [3]
  Volume: 3.3 ml 4hr-1
Rattus norvegicus [4]
  Acid output: 98.5 u equiv hr-1
Rattus norvegicus [5]
  Length: 8.9 mm
Rattus norvegicus [6]
  inhibition in vivo at 2.5 mg/kg: 74.8%
Rattus norvegicus [7]
  Length: 21 mm
Rattus norvegicus [8]
  inhibition in vivo at 2.5 mg/kg: 82.9%
Rattus norvegicus [9]
  Length: 139 mm
Rattus norvegicus [10]
  Length: 30.3 mm
Rattus norvegicus [11]
  inhibition in vivo at 2.5 mg/kg: 46.8%
Rattus norvegicus [12]
  inhibition in vivo at 5 mg/kg: 73.7%
Rattus norvegicus [13]
  inhibition in vivo at 5 mg/kg: 81.7%
Rattus norvegicus [14]
  inhibition in vivo at 5 mg/kg: 69.5%
Rattus norvegicus [15]
  Length: 92.8 mm
Rattus norvegicus [16]
  inhibition in vivo at 2.5 mg/kg: 8.9%
Rattus norvegicus [17]
  Length: 110 mm
Rattus norvegicus [18]
  inhibition in vivo at 5 mg/kg: 17.2%
Rattus norvegicus [19]
  Length: 24.1 mm
Rattus norvegicus [20]
  Volume: 4.1 ml 4hr-1
Rattus norvegicus [21]
  inhibition in vivo at 2.5 mg/kg: 51.2%
Rattus norvegicus [22]
  pH: 1.41
Rattus norvegicus [23]
  inhibition in vivo at 2.5 mg/kg: 57%
Rattus norvegicus [24]
  Length: 63 mm
Rattus norvegicus [25]
  inhibition in vivo at 5 mg/kg: 93.7%
Rattus norvegicus [26]
  Length: 34.9 mm
Rattus norvegicus [27]
  inhibition in vivo at 1.25 mg/kg: 48.5%
Rattus norvegicus [28]
  Length: 50 mm
Rattus norvegicus [29]
  Acid output: 71.8 u equiv hr-1
Rattus norvegicus [30]
  pH: 1.41
Rattus norvegicus [31]
  inhibition in vivo at 1.25 mg/kg: 50.4%
Rattus norvegicus [32]
  inhibition in vivo at 5 mg/kg: 70.2%
